Reference: patent US12493040B2, “Cancer detection method using sense of smell of nematode” (HIROTSU BIO SCIENCE INC., priority 2013, dated 2025)

System: RNAi-treated eri-1 (mg366) nematodes
Test: RNAi screening of olfactory receptor genes: chemotaxis assay of RNAi-treated nematodes to odorants
Assay type: in vivo, Caenorhabditis elegans
Conditions: repellent or high concentration of attractant
Method in brief: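 Chemotaxis of adult RNAi-fed eri-1 (mg366) nematodes (30–50 per test) was measured toward low (1 μl, 10^−3 or 10^−4 dilution) or high (1 and 5 μl neat) odorant doses. Knockdown: 4 days feeding on E. coli from Ahringer library with IPTG and ampicillin. Differences called by z score at ±1.96, weaker cutoff ±0.96.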

Structure (SMILES): CC(=O)C(C)=O [High Da]
- chemotaxis index (Control nematodes): −0.62 ± 0.012
- chemotaxis index (srh-4 RNAi-treated nematodes): −0.81
- chemotaxis index (srh-7 RNAi-treated nematodes): −0.83
- chemotaxis index (srh-8 RNAi-treated nematodes): −0.63
- chemotaxis index (srh-10 RNAi-treated nematodes): 0.20
- chemotaxis index (srh-11 RNAi-treated nematodes): −0.65
- chemotaxis index (srh-15 RNAi-treated nematodes): −0.54
- chemotaxis index (srh-16 RNAi-treated nematodes): −0.65
- chemotaxis index (srh-18 RNAi-treated nematodes): −0.74
- chemotaxis index (srh-19 RNAi-treated nematodes): −0.43
- chemotaxis index (srh-22 RNAi-treated nematodes): −0.74
- chemotaxis index (srh-23 RNAi-treated nematodes): −0.87
- chemotaxis index (srh-24 RNAi-treated nematodes): −0.67
- chemotaxis index (srh-25 RNAi-treated nematodes): −0.22
- chemotaxis index (srh-27 RNAi-treated nematodes): −0.80
- chemotaxis index (srh-28 RNAi-treated nematodes): −0.58
- chemotaxis index (srh-36 RNAi-treated nematodes): −0.46
- chemotaxis index (srh-37 RNAi-treated nematodes): −0.34
- chemotaxis index (srh-39 RNAi-treated nematodes): −0.51
- chemotaxis index (srh-40 RNAi-treated nematodes): −0.46
- chemotaxis index (srh-41 RNAi-treated nematodes): −0.21
- chemotaxis index (srh-44 RNAi-treated nematodes): −0.25
- chemotaxis index (srh-45 RNAi-treated nematodes): −0.47
- chemotaxis index (srh-46 RNAi-treated nematodes): −0.82
- chemotaxis index (srh-48 RNAi-treated nematodes): −0.49
- chemotaxis index (srh-49 RNAi-treated nematodes): −0.62
- chemotaxis index (srh-50 RNAi-treated nematodes): −0.52
- chemotaxis index (srh-51 RNAi-treated nematodes): −0.73
- chemotaxis index (srh-52 RNAi-treated nematodes): −0.78
- chemotaxis index (srh-55 RNAi-treated nematodes): −0.78
- chemotaxis index (srh-59 RNAi-treated nematodes): −0.24
- chemotaxis index (srh-60 RNAi-treated nematodes): −0.64
- chemotaxis index (srh-61 RNAi-treated nematodes): −0.57
- chemotaxis index (srh-67 RNAi-treated nematodes): −0.58
- chemotaxis index (srh-68 RNAi-treated nematodes): −0.49
- chemotaxis index (srh-69 RNAi-treated nematodes): −0.76
- chemotaxis index (srh-70 RNAi-treated nematodes): −0.87
- chemotaxis index (srh-71 RNAi-treated nematodes): −0.38
- chemotaxis index (srh-72 RNAi-treated nematodes): −0.73
- chemotaxis index (srh-74 RNAi-treated nematodes): −0.54
- chemotaxis index (srh-75 RNAi-treated nematodes): −0.42
- chemotaxis index (srh-77 RNAi-treated nematodes): −0.34
- chemotaxis index (srh-79 RNAi-treated nematodes): 0.35
- chemotaxis index (srh-80 RNAi-treated nematodes): −0.48
- chemotaxis index (srh-82 RNAi-treated nematodes): −0.36
- chemotaxis index (srh-83 RNAi-treated nematodes): −0.23
- chemotaxis index (srh-97 RNAi-treated nematodes): −0.42
- chemotaxis index (srh-99 RNAi-treated nematodes): −0.24
- chemotaxis index (srh-100 RNAi-treated nematodes): −0.75
- chemotaxis index (srh-104 RNAi-treated nematodes): −0.39
- chemotaxis index (srh-105 RNAi-treated nematodes): −0.58
- chemotaxis index (srh-109 RNAi-treated nematodes): −0.59
- chemotaxis index (srh-111 RNAi-treated nematodes): −0.35
- chemotaxis index (srh-113 RNAi-treated nematodes): −0.62
- chemotaxis index (srh-115 RNAi-treated nematodes): −0.57
- chemotaxis index (srh-116 RNAi-treated nematodes): −0.36
- chemotaxis index (srh-118 RNAi-treated nematodes): −0.64
- chemotaxis index (srh-119 RNAi-treated nematodes): −0.78
- chemotaxis index (srh-120 RNAi-treated nematodes): −0.66
- chemotaxis index (srh-122 RNAi-treated nematodes): −0.53
- chemotaxis index (srh-123 RNAi-treated nematodes): −0.55
- chemotaxis index (srh-125 RNAi-treated nematodes): −0.59
- chemotaxis index (srh-128 RNAi-treated nematodes): −0.48
- chemotaxis index (srh-129 RNAi-treated nematodes): −0.69
- chemotaxis index (srh-130 RNAi-treated nematodes): −0.37
- chemotaxis index (srh-131 RNAi-treated nematodes): −0.34
- chemotaxis index (srh-132 RNAi-treated nematodes): −0.83
- chemotaxis index (srh-139 RNAi-treated nematodes): −0.42
- chemotaxis index (srh-140 RNAi-treated nematodes): −0.46
- chemotaxis index (srh-141 RNAi-treated nematodes): −0.77
- chemotaxis index (srh-142 RNAi-treated nematodes): −0.49
- chemotaxis index (srh-145 RNAi-treated nematodes): −0.85
- chemotaxis index (srh-148 RNAi-treated nematodes): −0.69
- chemotaxis index (srh-154 RNAi-treated nematodes): −0.65
- chemotaxis index (srh-159 RNAi-treated nematodes): −0.45
- chemotaxis index (srh-165 RNAi-treated nematodes): −0.79
- chemotaxis index (srh-166 RNAi-treated nematodes): −0.83
- chemotaxis index (srh-167 RNAi-treated nematodes): −0.89
- chemotaxis index (srh-169 RNAi-treated nematodes): −0.92
- chemotaxis index (srh-174 RNAi-treated nematodes): −0.69
- chemotaxis index (srh-179 RNAi-treated nematodes): −0.87
- chemotaxis index (srh-182 RNAi-treated nematodes): −0.86
- chemotaxis index (srh-186 RNAi-treated nematodes): −0.80
- chemotaxis index (srh-190 RNAi-treated nematodes): −0.91
- chemotaxis index (srh-193 RNAi-treated nematodes): −0.53
- chemotaxis index (srh-195 RNAi-treated nematodes): −0.80
- chemotaxis index (srh-201 RNAi-treated nematodes): −0.95
- chemotaxis index (srh-203 RNAi-treated nematodes): −0.94
- chemotaxis index (srh-204 RNAi-treated nematodes): −0.89
- chemotaxis index (srh-206 RNAi-treated nematodes): −0.79
- chemotaxis index (srh-207 RNAi-treated nematodes): −0.87
- chemotaxis index (srh-208 RNAi-treated nematodes): −0.76
- chemotaxis index (srh-209 RNAi-treated nematodes): −0.70
- chemotaxis index (srh-210 RNAi-treated nematodes): −0.56
- chemotaxis index (srh-214 RNAi-treated nematodes): −0.60
- chemotaxis index (srh-216 RNAi-treated nematodes): −0.61
- chemotaxis index (srh-217 RNAi-treated nematodes): −0.50
- chemotaxis index (srh-220 RNAi-treated nematodes): −0.42
- chemotaxis index (srh-222 RNAi-treated nematodes): −0.66
- chemotaxis index (srh-223 RNAi-treated nematodes): −0.50
